Data: patent US12600696B2 (XENIOPRO GMBH, priority 2017, dated 2026)

These compounds were tested on Notch signaling (hNotch1ΔE, human Notch1 receptor) in HeLa cells (assay: Notch reporter assay (luciferase luminescence readout in transfected HeLa cells)). Settings: Homo sapiens, 20 hours, relative to DMSO baseline level of 1.0, read-out: AVEw, weighted arithmetic mean of double-normalized Notch-reporter luciferase luminescence values (Activity Range).
Format: cell-based
Summary of the method: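 HeLa cells were transiently transfected for 24 h with membrane-tethered constitutively active hNotch1ΔE, a CSL-promoter Firefly luciferase reporter and constitutive SV40-Renilla luciferase. Compounds were then applied at 10 μM (0.1% DMSO) for 20 h. Firefly/Renilla dual-luciferase ratios were normalized to DMSO control (baseline 1.0), outliers were excluded, and replicate values were averaged across ≥3 independent experiments.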

| SMILES | fold induction at 10 µM |
| --- | --- |
| Oc1ccc(C=Cc2cc(O)cc(O)c2)cc1 [RES, resveratrol, reference compound] | 1.5 |
| CNC(=O)c1ccc(Oc2ccc(C(F)(F)F)cc2)nc1 [Compound 300, N-methyl-6-(4-(trifluoromethyl)phenoxy)nicotinamide] | 1.1 to 1.2 |
| CC(C)c1ccc(Oc2ccc(C(=O)NO)cn2)cc1 [Compound 272, N-hydroxy-6-(4-isopropylphenoxy)nicotinamide] | 1.7 to 2 |
| O=C(NO)c1ccc(Oc2ccc(C34CC5CC(CC(C5)C3)C4)cc2)nc1 [Compound 288, 6-(4-((3r,5r,7r)-adamantan-1-yl)phenoxy)-N-hydroxynicotinamide] | 1.7 to 2 |
| O=C(NO)c1ccc(Oc2ccc(C3CCCCC3)cc2)nc1 [Compound 284, 6-(4-Cyclohexylphenoxy)-N-hydroxynicotinamide] | 1.7 to 2 |
| CCCc1ccc(Oc2ccc(C(=O)NO)cc2)cc1 [Compound 166, N-hydroxy-4-(4-propylphenoxy)benzamide] | 1.2 to 1.3 |
| O=C(NO)c1ccc(Oc2ccc(C34CC5CC(CC(C5)C3)C4)cc2)cc1 [Compound 186, 4-(4-(Adamantan-1-yl)phenoxy)-N-hydroxybenzamide] | ≥ 2 |
| CCC(C)(C)c1ccc(Oc2ccc(C(=O)NO)cn2)cc1 [Compound 273, N-hydroxy-6-(4-(tert-pentyl)phenoxy)nicotinamide] | 1.2 to 1.3 |
| NC(=O)c1ccc(Oc2ccc(C3CC4CCC3C4)cc2)cc1 (racemic) [Compound 159, (±)-4-(4-(Bicyclo[2.2.1]heptan-2-yl)phenoxy)benzamide] | 1.1 to 1.2 |
| O=C(NO)c1ccc(Oc2ccc(C3CCCCC3)cc2)cc1 [Compound 182, 4-(4-cyclohexylphenoxy)-N-hydroxybenzamide] | 1.3 to 1.4 |
| O=C(NO)c1cnc(Oc2ccc(C3CCCCC3)cc2)c(F)c1 [Compound 644, 6-(4-Cyclohexylphenoxy)-5-fluoro-N-hydroxynicotinamide] | 1.1 to 1.2 |
| O=C(NO)c1ccc(Oc2ccc(C34CC5CC(CC(C5)C3)C4)cc2)c(F)c1 [Compound 544, 4-(4-(Adamantan-1-yl)phenoxy)-3-fluoro-N-hydroxybenzamide] | 1.4 to 1.7 |
| CN(C)C(=O)c1ccc(Oc2ccc(C3CCCCC3)cc2)nc1 [Compound 334, 6-(4-cyclohexylphenoxy)-N,N-dimethylnicotinamide] | 1.3 to 1.4 |
| CCC(C)(C)c1ccc(Oc2ccc(C(=O)NO)cc2)cc1 [Compound 171, N-hydroxy-4-(4-(tert-pentyl)phenoxy)benzamide] | 1.1 to 1.2 |
| O=C(NO)c1ccc(Oc2ccc(C3CC4CCC3CC4)cc2)nc1 (stereo not drawn) [Compound 287, 6-(4-((1s,4s)-bicyclo[2.2.2]octan-2-yl)phenoxy)-N-hydroxynicotinamide] | 1.1 to 1.2 |
